Patent US11629133B2, “Perfluoroaminoolefins and methods of making and using the same” (3M INNOVATIVE PROPERTIES COMPANY, priority 2018, dated 2023)

What was measured:
Type in all cases: physicochemical
[1] = Pour point, determined visually; conditions: lowest temperature at which sample flows within 5 sec held horizontally
Procedure: […] of the sample was placed in a vial and cooled in a liquid nitrogen-cooled pentane bath until it solidified. The sample was then allowed to warm slowly in the pentane bath by removal of the liquid nitrogen cooling source (typically an increase of 1-2° C./minute) and observed every 3-5° C.

[2] = Thermal stability of PE-1 with absorbents, purity by GC-FID
Procedure: GC-FID analysis was carried out on an Agilent Technologies 7890B GC System (Santa Clara Calif.) equipped with a Restek RtX-200 gas chromatography column (Bellefonte, Pa.) and helium carrier gas. Once material was injected into the column, the following temperature sequence was executed: 5 min hold at 40° C., 10° C./minute temperature increase over the span of 21 min to reach a final temperature of 250° C., and then a 15 min hold at 250° C. Data analysis by use of Agilent Open LAB CDSA ChemStation software enabled the determination of product purities and GC yields.
Thermal stability was measured by charging 1.0 g of PE-1 into glass vials and then adding a weighed amount of absorbent. The samples were stirred for 24 hours at 60° C., allowed to cool, and then analyzed by GC-FID for decomposition and purity changes.

[3] = Dielectric constant per ASTM D150-11; conditions: measured at 1 kHz
Procedure: The dielectric constant (tested per ASTM D150-11) of PE-1 was measured. The dielectric constant measured at 1 kHz was 1.98.

Compound: FC1=C(N2C(F)(F)C(F)(F)C(F)(F)C2(F)F)C(F)(F)C(F)(F)C1(F)F [PE-2, 2,2,3,3,4,4,5,5-octafluoro-1-(perfluorocyclopent-1-en-1-yl)pyrrolidine]
- Pour point [1]: −33 °C

Compound: FC1=C(N2C(F)(F)C(F)(F)OC(F)(F)C2(F)F)C(F)(F)C(F)(F)C1(F)F [PE-3, 2,2,3,3,5,5,6,6-octafluoro-4-(perfluorocyclopent-1-en-1-yl)morpholine]
- Pour point [1]: −49 °C

Compound: 2,2,3,3,4,4,5,5-octafluoro-1-(perfluoropent-2-en-3-yl)pyrrolidine and 2,2,3,3,4,4,5,5-octafluoro-1-(perfluoropent-2-en-2-yl)pyrrolidine [PE-4]
- Pour point [1]: −90 °C

Compound: FC1=C(N2C(F)(F)C(F)(F)C(F)(F)C2(F)F)C(F)(F)C(F)(F)C(F)(F)C1(F)F [PE-1, 2,2,3,3,4,4,5,5-octafluoro-1-(perfluorocyclohex-1-en-1-yl)pyrrolidine]
- Purity, % ([2]; 4 Angstrom Molecular Sieves, stirred 24 hours at 60° C.): 97.3%
- Purity, % ([2]; Activated Carbon, stirred 24 hours at 60° C.): 97.7%
- Purity, % ([2]; Basic Alumina, stirred 24 hours at 60° C.): 97.6%
- Purity, % ([2]; K2CO3, stirred 24 hours at 60° C.): 97.6%
- Purity, % ([2]; No Absorbent, stirred 24 hours at 60° C.): 97.7%
- Purity, % ([2]; Silica Gel, stirred 24 hours at 60° C.): 97.7%
- Pour point [1]: −34 °C
- dielectric constant [3]: 1.98
